The values that follow come from publication PMC6992940 (Bone Reports, 2020).

For the assay, the target named is ERα (estrogen receptor alpha) (Homo sapiens, UniProt P03372). The assay can be described thus: fluorescence polarization competitor assay. It is filed as binding. (In general: Polarisation of emitted light reports the rotation of a fluorescent probe.)

Usually IC50 stands for the point on the concentration scale where inhibition reaches its midpoint.

Sequence of ERα (estrogen receptor alpha) (P03372 whole entry): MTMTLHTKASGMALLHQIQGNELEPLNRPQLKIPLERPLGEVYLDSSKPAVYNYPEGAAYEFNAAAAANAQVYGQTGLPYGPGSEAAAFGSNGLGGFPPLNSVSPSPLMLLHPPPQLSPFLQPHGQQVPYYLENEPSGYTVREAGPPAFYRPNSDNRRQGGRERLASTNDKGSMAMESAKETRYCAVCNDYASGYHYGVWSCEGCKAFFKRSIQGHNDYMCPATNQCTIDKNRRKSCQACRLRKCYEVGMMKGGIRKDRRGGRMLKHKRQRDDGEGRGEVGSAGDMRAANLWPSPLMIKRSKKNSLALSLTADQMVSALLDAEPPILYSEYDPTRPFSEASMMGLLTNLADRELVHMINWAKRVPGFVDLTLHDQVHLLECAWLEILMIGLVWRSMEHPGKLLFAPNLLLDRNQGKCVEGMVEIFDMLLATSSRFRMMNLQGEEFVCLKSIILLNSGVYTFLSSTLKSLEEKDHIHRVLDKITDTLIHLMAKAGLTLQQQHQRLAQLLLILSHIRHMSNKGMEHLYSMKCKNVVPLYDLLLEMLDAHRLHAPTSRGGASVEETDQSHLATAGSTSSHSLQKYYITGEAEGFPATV

As for `COc1ccc2c(C(=O)c3ccc(OCCN4CCCCC4)cc3)c(-c3ccc(O)cc3)sc2c1` [compound 2, (2-(4-hydroxyphenyl)-6-methoxybenzo[b]thiophen-3-yl)(4-(2-(piperidin-1-yl)ethoxy)phenyl)methanone], the half-inhibitory concentration (IC50) was found to be 183 nM.
